Data published in the SangsterLogP compilation.

Assay: method code SF-HPLC, from DOI: 10.1080/10826079308019563
Details: pH 11.0

Row | SMILES | logD
1 | Cc1cccc(N2CCN(CC3CN=C(N)O3)CC2)c1C (stereo not given) | 2.19
2 | NC1=NCC(CN2CCN(c3ccccc3)CC2)O1 (stereo not given) | 0.85
3 | NC1=NCC(CN2CCN(c3ccc(C(F)(F)F)cc3)CC2)O1 (stereo not given) | 1.23
4 | CCOc1ccccc1N1CCN(CC2CN=C(N)O2)CC1 (stereo not given) | 1.21
5 | NC1=NCC(CN2CCN(c3ccc(Cl)c(Cl)c3)CC2)O1 (stereo not given) | 2.4
6 | COc1ccc(N2CCN(CC3CN=C(N)O3)CC2)cc1 (stereo not given) | 0.68
7 | NC1=NCC(CN2CCN(c3ccccn3)CC2)O1 (stereo not given) | 0.48
8 | NC1=NCC(CN2CCN(c3ccccc3Cl)CC2)O1 (stereo not given) | 1.87
9 | COc1ccccc1N1CCN(CC2CN=C(N)O2)CC1 (stereo not given) | 0.76
10 | NC1=NCC(CN2CCN(c3cccc(Cl)c3)CC2)O1 (stereo not given) | 1.83
11 | NC1=NCC(CN2CCN(c3ncccn3)CC2)O1 (stereo not given) | 0.21
12 | COc1cccc(N2CCN(CC3CN=C(N)O3)CC2)c1 (stereo not given) | 0.87
13 | NC1=NCC(CN2CCN(c3ccc(F)cc3)CC2)O1 (stereo not given) | 1
14 | NC1=NCC(CN2CCN(c3cccc(C(F)(F)F)c3)CC2)O1 (stereo not given) | 2.21
15 | NC1=NCC(CN2CCN(c3ccc(Cl)cc3)CC2)O1 (stereo not given) | 1.71
